The record followed here is patent EP0918774B9, “ANDROGEN RECEPTOR MODULATOR COMPOUNDS AND METHODS” (LIGAND PHARMACEUTICALS INCORPORATED, priority 1996, dated 1997).

Each structure is given as a SMILES string. Like-named read-outs stand apart in the source and are kept apart here.

Assay [1] concerns the target T1, PR (Homo sapiens, UniProt P06401).
T1 sequence (P06401 1-933): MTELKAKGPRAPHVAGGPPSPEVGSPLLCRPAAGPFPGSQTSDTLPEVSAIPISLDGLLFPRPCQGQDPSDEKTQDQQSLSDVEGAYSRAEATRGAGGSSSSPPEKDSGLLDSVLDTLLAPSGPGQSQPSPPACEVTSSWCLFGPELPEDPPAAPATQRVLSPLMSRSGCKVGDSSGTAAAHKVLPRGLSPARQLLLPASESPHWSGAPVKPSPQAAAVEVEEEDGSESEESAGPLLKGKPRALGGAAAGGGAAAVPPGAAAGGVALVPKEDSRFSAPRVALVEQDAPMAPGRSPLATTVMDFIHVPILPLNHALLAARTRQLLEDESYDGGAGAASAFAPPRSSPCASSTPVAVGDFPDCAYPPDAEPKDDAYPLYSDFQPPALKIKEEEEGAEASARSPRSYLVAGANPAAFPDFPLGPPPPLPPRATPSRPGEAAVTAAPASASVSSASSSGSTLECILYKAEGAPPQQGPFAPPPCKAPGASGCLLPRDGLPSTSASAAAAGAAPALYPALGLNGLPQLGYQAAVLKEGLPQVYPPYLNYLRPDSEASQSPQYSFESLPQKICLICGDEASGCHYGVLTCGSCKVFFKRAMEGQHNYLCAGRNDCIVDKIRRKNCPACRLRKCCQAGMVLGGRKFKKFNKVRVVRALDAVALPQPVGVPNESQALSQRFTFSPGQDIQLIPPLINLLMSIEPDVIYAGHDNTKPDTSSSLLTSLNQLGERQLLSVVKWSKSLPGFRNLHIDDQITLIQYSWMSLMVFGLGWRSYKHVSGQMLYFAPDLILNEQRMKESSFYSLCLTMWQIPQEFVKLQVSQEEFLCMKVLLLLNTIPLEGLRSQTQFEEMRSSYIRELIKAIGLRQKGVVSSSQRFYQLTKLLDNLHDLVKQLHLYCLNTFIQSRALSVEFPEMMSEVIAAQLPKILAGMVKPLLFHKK
Description: Co-transfection assay, PR agonist mode. It counts as cell-based. Further details: expressed in transfected cells; host or cells: CV-1 cells. The procedure:
(§1) CV-1 cells (African green monkey kidney fibroblasts) were cultured in the presence of Dulbecco's Modified Eagle Medium (DMEM) supplemented with 10% charcoal resinstripped fetal bovine serum then transferred to 96-well microtiter plates one day prior to transfection.
(§2) Three to four replicates were used for each sample.
(§3) After 40 hours, the cells were washed with PBS, lysed with a Triton X-100-based buffer and assayed for LUC and β-Gal activities using a luminometer or spectrophotometer, respectively. For each replicate, the normalized response (NR) was calculated as: LUC response/β-Gal rate where β-Gal rate = β-Gal•1x10^-5/β-Gal incubation time.

The target in assay [2] is T2, human AR (Homo sapiens, UniProt P10275).
T2 construct: expressed in transfected cells; host or cells: CV-1 cells (African green monkey kidney fibroblasts), transient calcium phosphate transfection
T2 sequence (P10275 1-920): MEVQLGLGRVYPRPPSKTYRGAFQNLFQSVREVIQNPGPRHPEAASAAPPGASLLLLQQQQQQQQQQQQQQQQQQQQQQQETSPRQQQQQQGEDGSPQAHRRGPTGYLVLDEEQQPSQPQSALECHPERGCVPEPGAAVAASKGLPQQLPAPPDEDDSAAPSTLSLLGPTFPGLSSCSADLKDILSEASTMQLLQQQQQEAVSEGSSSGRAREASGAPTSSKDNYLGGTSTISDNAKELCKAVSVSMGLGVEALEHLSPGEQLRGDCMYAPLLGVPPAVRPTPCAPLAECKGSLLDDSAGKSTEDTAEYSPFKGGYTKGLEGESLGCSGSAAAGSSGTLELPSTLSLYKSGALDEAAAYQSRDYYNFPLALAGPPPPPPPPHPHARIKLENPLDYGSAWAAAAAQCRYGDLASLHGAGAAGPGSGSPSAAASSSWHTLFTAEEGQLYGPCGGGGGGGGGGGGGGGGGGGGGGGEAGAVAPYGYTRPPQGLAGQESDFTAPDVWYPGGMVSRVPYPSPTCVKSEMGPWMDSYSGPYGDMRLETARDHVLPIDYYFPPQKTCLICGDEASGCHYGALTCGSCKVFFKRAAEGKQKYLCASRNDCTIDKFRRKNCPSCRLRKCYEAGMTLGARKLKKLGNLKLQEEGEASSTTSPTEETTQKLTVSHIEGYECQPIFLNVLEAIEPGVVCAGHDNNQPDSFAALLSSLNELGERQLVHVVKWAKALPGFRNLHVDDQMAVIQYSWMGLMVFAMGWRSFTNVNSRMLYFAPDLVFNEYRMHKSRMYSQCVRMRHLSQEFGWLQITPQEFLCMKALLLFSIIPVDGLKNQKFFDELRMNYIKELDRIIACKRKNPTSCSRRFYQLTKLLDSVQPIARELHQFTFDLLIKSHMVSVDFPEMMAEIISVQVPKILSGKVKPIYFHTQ
Briefly: cell-based. The settings on record: for AR Antagonist CV-1 Cells Efficacy (%): % of maximal inhibition, fixed DHT at EC50; for AR Agonist CV-1 Cells Efficacy (%): percent maximal response relative to reference agonist DHT; for AR agonist/antagonist profile (in words): co-transfection assay, summary of Tables 1-2. It counts as cell-based.
Excerpt: The co-transfection assay provides a method for identifying functional agonists and partial agonists which mimic, or antagonists which inhibit, the effect of native hormones, and quantifying their activity for responsive IR proteins. In this regard, the co-transfection assay mimics an in vivo system in the laboratory. Importantly, activity in the co-transfection assay correlates very well with known in vivo activity, such that the co-transfection assay functions as a qualitative and quantitative predictor of a tested compounds in vivo pharmacology. See, e.g., T. Berger et al. 41 J. Steroid Biochem. Molec.
as §1
The reporter plasmid, MTV-LUC, contains the cDNA for firefly luciferase (LUC) under control of the mouse mammary tumor virus (MTV) long terminal repeat, a conditional promoter containing an androgen response element. See e.g, Berger et al. supra. In addition, pRS-β-Gal, coding for constitutive expression of E. colβ-galactosidase (β-Gal), was included as an internal control for evaluation of transfection efficiency and compound toxicity.
as §2, §3

Assay [3] concerns the target T2, human AR. Briefly: cell-based. In kind it is binding.

The Ki is the dissociation constant of the complex between target and ligand, obtained from inhibition or displacement. Low readings indicate higher affinity, high ones lower affinity. Regarding `Cn1c(=O)c(F)c(C(F)(F)F)c2cc3c(cc21)N1CCCC1(C)CC3` (racemic) [Compound 104, (R/S)-3-Fluoro-6,7,7a,11-tetrahydro-1,7a-dimethyl-4-trifluoromethyl-2-pyridono[5.6-g]pyrrolidino[1,2-a]quinoline], the EC50 in assay [1] is greater than 10000 nM; in assay [2], greater than 10000 nM; in assay [2] (read-out: AR Potency Agon, Table 2, na = not active), greater than 10000 nM. In addition, the “AR Antagonist CV-1 Cells Efficacy (%)” value in assay [2] (na = not active) is listed as 86%. In addition, the “AR Agonist CV-1 Cells Efficacy (%)” value in assay [2] (na = not active) is “na (not active (i.e. efficacy of <20 and potency of >10,000))”. The compound also displayed a Ki in assay [3] of 159 nM.
The IC50 is the midpoint of a concentration-inhibition curve. In assay [2], `CC1(C)CCc2cc3c(C(F)F)c(F)c(=O)[nH]c3cc2N1` [Compound 106, 6-Difluoromethyl-7-fluoro-1,2,3,4-tetrahydro-2,2-dimethyl-8-pyridono[5,6-g]quinoline] showed an EC50 greater than 10000 nM and an IC50 of 60 nM. Further, in assay [2] (na = not active), the “AR Antagonist CV-1 Cells Efficacy (%)” value is listed as 83%; the “AR Agonist CV-1 Cells Efficacy (%)” value was “na (not active (i.e. efficacy of <20 and potency of >10,000))”.
Regarding `Cn1c(=O)c(F)c(C(F)(F)F)c2cc3c(cc21)NC(C)(C)CC3` [Compound 107, 7-Fluoro-1,2,3,4-tetrahydro-2,2,9-trimethyl-6-trifluoromethyl-8-pyridono[5,6-g]quinoline], in assay [2], the EC50 is greater than 10000 nM and the IC50 came out at 47 nM. Further, in assay [2] (na = not active), the “AR Antagonist CV-1 Cells Efficacy (%)” value is recorded as 79%; the “AR Agonist CV-1 Cells Efficacy (%)” value was “na (not active (i.e. efficacy of <20 and potency of >10,000))”.
As to `CN1c2cc3c(cc2CCC1(C)C)c(C(F)(F)F)c(F)c(=O)n3C` [Compound 109, 7-Fluoro-1,2,3,4-tetrahydro-1,2,2,9-tetramethyl-6-trifluoromethyl-8-pyridono[5,6-g]quinoline], in assay [2], the EC50 is greater than 10000 nM, inhibition was half-maximal at 12 nM (IC50) and the “AR agonist/antagonist profile (in words)” value is given as “highly selective AR antagonists”. In addition, in assay [2] (na = not active), the “AR Antagonist CV-1 Cells Efficacy (%)” value is 86%; the “AR Agonist CV-1 Cells Efficacy (%)” value is “na (not active (i.e. efficacy of <20 and potency of >10,000))”.
On to `CC1=CC(C)(C)Nc2cc3[nH]c(=O)c(F)c(C(F)(F)F)c3cc21` [Compound 111, 7-Fluoro-1,2-dihydro-2,2,4-trimethyl-6-trifluoromethyl-8-pyridono[5,6-g]quinoline], for which, in assay [2] (na = not active), the “AR Antagonist CV-1 Cells Efficacy (%)” value stood at 50% and the “AR Agonist CV-1 Cells Efficacy (%)” value is on record as 20%. In addition, the “AR agonist/antagonist profile (in words)” value in assay [2] was “mixed AR agonists/antagonists”. In addition, in assay [3], the Ki was found to be 804 nM.
In the case of `CC1CC(C)(C)Nc2cc3[nH]c(=O)c(F)c(C(F)(F)F)c3cc21` (centres unmarked) [Compound 112, 7-Fluoro-1,2,3,4-tetrahydro-2,2,4-trimethyl-6-trifluoromethyl-8-pyridono[5,6-g]quinoline], the “AR Antagonist CV-1 Cells Efficacy (%)” value in assay [2] (na = not active) stood at 49%. In assay [2], the “AR agonist/antagonist profile (in words)” value is “highly selective AR antagonists”.
As to `CC1CC(C)(C)n2oc(=O)c3c4[nH]c(=O)cc(C(F)(F)F)c4cc1c32` (centres unmarked) [Compound 113, 1,10-[1,3-dihydro-3-oxo-(2,1-isoxazolyl)]-1,2,3,4-tetrahydro-2,2,4,10-tetramethyl-6-trifluoromethyl-8-pyridono[5,6-g]quinoline], in assay [2] (na = not active), the “AR Antagonist CV-1 Cells Efficacy (%)” value was found to be 48% and the “AR Agonist CV-1 Cells Efficacy (%)” value was determined as 26%. The “AR agonist/antagonist profile (in words)” value in assay [2] is on record as “mixed AR agonists/antagonists”. The inhibition constant Ki in assay [3] was 17 nM.
In turn, `CC1=CC(C)(C)Nc2c1cc1c(C(F)(F)F)c(F)c(=O)[nH]c1c2C` [Compound 114, 7-Fluoro-1,2-dihydro-2,2,4,10-tetramethyl-6-trifluoromethyl-8-pyridono[5,6-g]quinoline] had an EC50 in assay [2] greater than 10000 nM. Besides, in assay [2] (na = not active), the “AR Antagonist CV-1 Cells Efficacy (%)” value was determined as 90%; the “AR Agonist CV-1 Cells Efficacy (%)” value was “na (not active (i.e. efficacy of <20 and potency of >10,000))”.
In assay [2], `Cc1c2c(cc3c(C(F)(F)F)c(F)c(=O)[nH]c13)C(C)CC(C)(C)N2` (centres unmarked) [Compound 115, 7-Fluoro-1,2,3,4-tetrahydro-2,2,4,10-tetramethyl-6-trifluoromethyl-8-pyridono[5,6-g]quinoline] came in with an EC50 greater than 10000 nM and an IC50 of 101 nM. Also, in assay [2] (na = not active), the “AR Antagonist CV-1 Cells Efficacy (%)” value is on record as 88%; the “AR Agonist CV-1 Cells Efficacy (%)” value was “na (not active (i.e. efficacy of <20 and potency of >10,000))”.
As for `Cc1c2c(cc3c(C(F)(F)F)c(F)c(=O)n(C)c13)C(C)CC(C)(C)N2` (centres unmarked) [Compound 116, 7-Fluoro-1,2,3,4-tetrahydro-2,2,4,9,10-pentamethyl-6-trifluoromethyl-8-pyridono[5,6-g]quinoline], the EC50 in assay [2] is greater than 10000 nM. Also, in assay [2] (na = not active), the “AR Antagonist CV-1 Cells Efficacy (%)” value worked out at 20%; the “AR Agonist CV-1 Cells Efficacy (%)” value was “na (not active (i.e. efficacy of <20 and potency of >10,000))”.
On to `Cc1c2c(cc3c(C(F)(F)F)c(F)c(=O)[nH]c13)C(C)CC(C)(C)N2C` (centres unmarked) [Compound 117, 7-Fluoro-1,2,3,4-tetrahydro-1,2,2,4,10-pentamethyl-6-trifuluoromethyl-8-pyridono[5,6-g]quinoline], for which, in assay [2] (na = not active), the “AR Antagonist CV-1 Cells Efficacy (%)” value is reported as 81%; the “AR Agonist CV-1 Cells Efficacy (%)” value is “na (not active (i.e. efficacy of <20 and potency of >10,000))”. For the same compound, in assay [2] (read-out: AR Agonist CV-1 Cells Potency, agonist potency EC50, na = not active), the EC50 was greater than 10000 nM.
For the compound `CCC1(CC)CCc2cc3c(C(F)(F)F)c(F)c(=O)[nH]c3cc2N1` [Compound 120, 2,2-Diethyl-7-fluoro-1,2,3,4-tetrahydro-6-trifluoromethyl-8-pyridono[5,6-g]quinoline], the IC50 in assay [2] came to 25 nM. Besides, in assay [2] (na = not active), the “AR Antagonist CV-1 Cells Efficacy (%)” value was found to be 61%.
